The values that follow come from US20220323406A1, “METHODS AND COMPOSITIONS FOR DIFFERENTIATING STEM CELLS” (Massachusetts Institute of Technology, priority 2019, published 2022).

The subject of assay [1] is ENR+CD organoids (ISC to Paneth cell differentiation). The assay can be described thus: Primary screen: CCh-stimulated lysozyme secretion LYZ.S, 2.5-D 384-well ENR+CD organoid differentiation. In kind it is cell-based, mouse. The note with it: primary screen. The text has this: (§1) High-throughput screening.
Assay [2] deals with ENR+CD organoids. The assay can be described thus: Primary screen: ATP (CellTiter-Glo 3D, CTG) cell number/viability, 2.5-D 384-well ENR+CD organoids.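 Further: compounds given at plating and again on day 3 over a 6-day differentiation from ENR+CV stem-cell-enriched precursors, ATP measured on day 6, plate median as control.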 The note with it: primary screen. On the technique in general: Cellular ATP, detected with luciferase, serves as a proxy for viable cell number.
For assay [3], the system named is ENR+CD organoids (ISC to Paneth cell differentiation). Kind of assay: Primary screen: basal (non-stimulated) lysozyme secretion LYZ.NS, 2.5-D 384-well ENR+CD organoid differentiation. In kind it is cell-based, mouse. The note with it: primary screen; for Z.LYZ.NS: standard z score.
Text: as §1

Where [4] appears, read: dose 0.08 uM, FC vs plate median.
Setting [5] is: dose 0.40 uM, FC vs plate median.
The mark [6] stands for this setting: dose 2.00 uM, FC vs plate median.
Setting [7] is: dose 10.00 uM, FC vs plate median.

As for `C=CC(=O)Nc1cccc(Nc2nc(Nc3ccc(OCCOC)cc3)ncc2F)c1` [AVL-292], the Dose.FC.LYZ.S in assay [1] (dose 0.08 uM) is on record as 0.235 log2 fold change; in assay [1] (dose 0.40 uM), 0.106 log2 fold change; in assay [1] (dose 2.00 uM), −0.206 log2 fold change; in assay [1] (dose 10.00 uM), −0.376 log2 fold change. The Dose.FC.CTG in assay [2] (dose 0.08 uM) is reported as 0.217 log2 fold change; in assay [2] (dose 0.40 uM) it was 0.057 log2 fold change; in assay [2] (dose 2.00 uM), −0.058 log2 fold change; in assay [2] (dose 10.00 uM), −0.778 log2 fold change. For the same compound, the “Z.CTG (standard z score)” value is 0.518 in assay [2] (dose 0.08 uM), 0.135 in assay [2] (dose 0.40 uM), −0.138 in assay [2] (dose 2.00 uM) and −1.859 in assay [2] (dose 10.00 uM). Besides, the Dose.FC.LYZ.NS in assay [3] (dose 0.08 uM) was 0.095 log2 fold change; in assay [3] (dose 0.40 uM), 0.052 log2 fold change; in assay [3] (dose 2.00 uM), −0.112 log2 fold change; in assay [3] (dose 10.00 uM), −0.213 log2 fold change. In addition, the “Z.LYZ.NS (standard z score)” value in assay [3] (dose 0.08 uM) is reported as 0.831; in assay [3] (dose 0.40 uM), 0.451; in assay [3] (dose 2.00 uM), −0.979; in assay [3] (dose 10.00 uM) it was −1.858.
Consider `COc1cc(-c2ncn(/C=C\C(=O)OC(C)C)n2)cc(C(F)(F)F)c1` [KPT-185], for which the “Dose.FC.LYZ.S (log2 fold change)” value in assay [1] (dose 0.08 uM) is reported as −0.015; in assay [1] (dose 0.40 uM), 0.220; in assay [1] (dose 2.00 uM) it was −0.322; in assay [1] (dose 10.00 uM), −0.153. For the same compound, the “Dose.FC.CTG (log2 fold change)” value in assay [2] (dose 0.08 uM) is listed as 0.116; in assay [2] (dose 0.40 uM) it was 0.104; in assay [2] (dose 2.00 uM) it was −0.995; in assay [2] (dose 10.00 uM), −0.855. Moreover, the “Z.CTG (standard z score)” value is on record as 0.277 in assay [2] (dose 0.08 uM), 0.248 in assay [2] (dose 0.40 uM), −2.377 in assay [2] (dose 2.00 uM) and −2.041 in assay [2] (dose 10.00 uM). In addition, the “Dose.FC.LYZ.NS (log2 fold change)” value in assay [3] (dose 0.08 uM) is −0.006; in assay [3] (dose 0.40 uM), 0.097; in assay [3] (dose 2.00 uM) it was −0.209; in assay [3] (dose 10.00 uM), −0.085. Further, the “Z.LYZ.NS (standard z score)” value in assay [3] (dose 0.08 uM) was −0.049; in assay [3] (dose 0.40 uM), 0.846; in assay [3] (dose 2.00 uM), −1.820; in assay [3] (dose 10.00 uM), −0.744.
On to `CC(C)CC(=O)Nc1[nH]nc2c1CN(C(=O)C1CCN(C)CC1)C2(C)C` [PHA-793887], for which the Dose.FC.LYZ.S in assay [1] (setting [4]) is recorded as 0.046 log2 fold change; in assay [1] (setting [5]), 0.100 log2 fold change; in assay [1] (setting [6]), −0.081 log2 fold change; in assay [1] (setting [7]) it was −0.292 log2 fold change. Moreover, the Dose.FC.CTG in assay [2] (setting [4]) was 0.113 log2 fold change; in assay [2] (setting [5]), 0.132 log2 fold change; in assay [2] (setting [6]), −0.144 log2 fold change; in assay [2] (setting [7]) it was −0.856 log2 fold change. For the same compound, the Z.LYZ.NS in assay [3] (dose 0.08 uM) is recorded as 0.275; in assay [3] (dose 0.40 uM), 0.085; in assay [3] (dose 2.00 uM), −1.187; in assay [3] (dose 10.00 uM) it was −2.324. Also, the Dose.FC.LYZ.NS is 0.032 log2 fold change in assay [3] (setting [4]), 0.010 log2 fold change in assay [3] (setting [5]), −0.136 log2 fold change in assay [3] (setting [6]) and −0.267 log2 fold change in assay [3] (setting [7]).
`O=C(O)CNC(=O)c1c(O)c2ccccc2n(Cc2ccccc2)c1=O` [IOX2]: the “Dose.FC.LYZ.S (log2 fold change)” value in assay [1] (dose 0.08 uM) is on record as 0.047; in assay [1] (dose 0.40 uM), 0.071; in assay [1] (dose 2.00 uM), 0.001; in assay [1] (dose 10.00 uM), −0.049. Further, the “Dose.FC.CTG (log2 fold change)” value is 0.149 in assay [2] (dose 0.08 uM), 0.078 in assay [2] (dose 0.40 uM), 0.097 in assay [2] (dose 2.00 uM) and 0.001 in assay [2] (dose 10.00 uM). Besides, the “Z.CTG (standard z score)” value was 0.356 in assay [2] (dose 0.08 uM), 0.185 in assay [2] (dose 0.40 uM), 0.232 in assay [2] (dose 2.00 uM) and 0.002 in assay [2] (dose 10.00 uM). In addition, the “Dose.FC.LYZ.NS (log2 fold change)” value in assay [3] (dose 0.08 uM) was 0.029; in assay [3] (dose 0.40 uM) it was 0.028; in assay [3] (dose 2.00 uM) it was 0.043; in assay [3] (dose 10.00 uM), −0.045. Moreover, the “Z.LYZ.NS (standard z score)” value in assay [3] (dose 0.08 uM) is 0.254; in assay [3] (dose 0.40 uM), 0.246; in assay [3] (dose 2.00 uM), 0.376; in assay [3] (dose 10.00 uM), −0.388.
Turning to `Cc1cc(SCc2sc(-c3ccc(C(F)(F)F)c(F)c3)nc2C)ccc1OCC(=O)O` [GW0742], the “Dose.FC.LYZ.S (log2 fold change)” value in assay [1] (dose 0.08 uM) is reported as 0.048; in assay [1] (dose 0.40 uM) it was 0.106; in assay [1] (dose 2.00 uM), 0.014; in assay [1] (dose 10.00 uM), −0.183. The “Dose.FC.CTG (log2 fold change)” value in assay [2] (dose 0.08 uM) was −0.751; in assay [2] (dose 0.40 uM) it was −0.489; in assay [2] (dose 2.00 uM), −0.249; in assay [2] (dose 10.00 uM), −0.451. Further, the “Z.CTG (standard z score)” value in assay [2] (dose 0.08 uM) was −1.794; in assay [2] (dose 0.40 uM) it was −1.167; in assay [2] (dose 2.00 uM), −0.596; in assay [2] (dose 10.00 uM), −1.078. The “Dose.FC.LYZ.NS (log2 fold change)” value in assay [3] (dose 0.08 uM) is reported as 0.052; in assay [3] (dose 0.40 uM) it was 0.045; in assay [3] (dose 2.00 uM), 0.026; in assay [3] (dose 10.00 uM) it was −0.152. In addition, the “Z.LYZ.NS (standard z score)” value in assay [3] (dose 0.08 uM) was 0.454; in assay [3] (dose 0.40 uM) it was 0.390; in assay [3] (dose 2.00 uM), 0.231; in assay [3] (dose 10.00 uM) it was −1.322.
`COc1cc(N2CCC(N)CC2)ccc1Nc1ncc(Cl)c(-c2c[nH]c3ccccc23)n1` [AZD3463]: the Dose.FC.LYZ.S in assay [1] (dose 0.08 uM) is −0.199 log2 fold change; in assay [1] (dose 0.40 uM), −0.293 log2 fold change; in assay [1] (dose 2.00 uM), −0.315 log2 fold change; in assay [1] (dose 10.00 uM) it was −0.328 log2 fold change. Besides, the Dose.FC.CTG in assay [2] (dose 0.08 uM) is recorded as −0.275 log2 fold change; in assay [2] (dose 0.40 uM), −0.341 log2 fold change; in assay [2] (dose 2.00 uM), −0.772 log2 fold change; in assay [2] (dose 10.00 uM), −0.960 log2 fold change. Moreover, the “Z.CTG (standard z score)” value in assay [2] (dose 0.08 uM) is given as −0.657; in assay [2] (dose 0.40 uM), −0.814; in assay [2] (dose 2.00 uM), −1.843; in assay [2] (dose 10.00 uM) it was −2.293. Moreover, the Dose.FC.LYZ.NS in assay [3] (dose 0.08 uM) is given as −0.147 log2 fold change; in assay [3] (dose 0.40 uM) it was −0.190 log2 fold change; in assay [3] (dose 2.00 uM), −0.232 log2 fold change; in assay [3] (dose 10.00 uM), −0.209 log2 fold change. Besides, the “Z.LYZ.NS (standard z score)” value is listed as −1.279 in assay [3] (dose 0.08 uM), −1.652 in assay [3] (dose 0.40 uM), −2.021 in assay [3] (dose 2.00 uM) and −1.820 in assay [3] (dose 10.00 uM).
